The numbers were not newly measured in patent US9120785B2, “Pyridyl aminopyridines as Syk inhibitors” (Merck Sharp & Dohme Corp., priority 2011, dated 2015), which cites them from elsewhere.

Each structure is given as a SMILES string.

The conditions of series [1]: dosed intranasally, phase I/II study, allergic rhinitis; cited from earlier work.
For series [2] the following is noted: phase II clinical trial, allergic rhinitis; cited from earlier work.

Consider `Oc1cccc(Nc2ncc(F)c(Nc3cccc(O)c3)n2)c1` [Example R112], for which, in series [1], the clinical safety entry is recorded as “safe across a range of indicators” and the “decrease in PGD2” value is “statistically significant decrease”. Besides, the efficacy versus placebo result in series [2] is on record as “lack of efficacy versus placebo”.
